Data: patent US20180256654A1, “USE OF LACTOBACILLUS PARACASEI STRAIN GMNL-653 TO PREPARE COMPOSITION FOR RESISTING BONE LOSS” (GENMONT BIOTECH INC., priority 2017, published 2018)

System: ovariectomized ICR female mice
Assay: Bone tissue analysis by micro computed tomography: trabecular bone volume ratio in the osteoporosis mouse model
Assay type: in vivo
Settings: oral gavage for 28 days
Experimental: Preparation of dead bacteria: 1 μl Lactobacillus paracasei strain GMNL-653 and the Lactobacillus salivarius strain GMNL-678 frozen viral was inoculated to 1 ml of MRS broth, respectively, and aerobically incubated at 37° C. for 20 hours (first activation). The next day, adding 15 μl culture solution (first activation) into 1.5 ml of MRS broth, and then and aerobically incubated at 37° C. for 20 hours (secondary activation) Estimating the bacteria number by using OD 600 nm to adjust the bacteria concentration to 4.1×10^8 CFU/ml, and heat-killed bacteria was carried by autoclaving at 121° C. for 15 minutes. […]
Micro computed tomography (SkyScan 1076, Kontizh, Belgium, with resolution of 18 μm) was taken of the backbone of the right femur far from the end was taken, and the trabecular bone volume ratio (i.e. bone volume/tissue volume; BV/TV) was analyzed by a software. The analyzed position was selected to include the area of 100 pieces under the growth plate excluding cortical bone. […] The obtained data in the experiments were analyzed with two-way analysis of variance, and the T-test statistical analysis. […] After comparisons, the abovementioned groups were analyzed statistically and noted by different marks to represent the statistically significant differences (* represents p<0.05; ** represents p<0.01 See Table 3 and Table 4, showing the results of the experiment 1.

Question: NCCCC(O)(P(=O)(O)O)P(=O)(O)O [Alendronate] was tested. Which “BV/TV compared with the disease group (OVX+H2O), in words” value did it give?
Answer: higher than the disease group
